Experimental data: the NIST ThermoML archive (doi:10.1016/j.jct.2013.04.009)

Experiments:
[1] = xn = mol fraction of the nth substance listed; conditions: Ring tensiometer
[2] = Ring tensiometer

C[S+](C)[O-] [dimethyl sulfoxide] + CCCCO
surface tension liquid-gas [mN/m], [1]
Conditions	288.15 K	298.15 K	308.15 K	318.15 K	328.15 K
x2 = 0.0373	39.63	38.43	38.16	36.84	36.19
x2 = 0.1042	36.3	35.44	34.43	33.54	32.99
x2 = 0.2136	32.33	32.03	30.37	30.79	29.37
x2 = 0.3353	30.13	29.72	28.82	28.06	27.19
x2 = 0.449	28.57	27.92	27.16	26.61	25.8
x2 = 0.5461	27.41	26.74	25.98	25.33	24.35
x2 = 0.614	26.65	26.06	25.27	24.55	23.85
x2 = 0.6643	26.18	25.55	24.84	23.98	23.3
x2 = 0.703	25.77	25.17	24.41	23.6	22.56
x2 = 0.8512	25.14	24.33	23.41	22.28	20.86
x2 = 0.9521	24.57	23.98	22.68	21.94	20.55

CCCCO [butan-1-ol]
[2]
Conditions	surface tension liquid-gas [mN/m]
288.15 K	24.28
298.15 K	23.48
308.15 K	22.4
318.15 K	21.64
328.15 K	20.56

CCCCCCO [hexan-1-ol]
[2]
Conditions	surface tension liquid-gas [mN/m]
288.15 K	25.38
298.15 K	24.51
308.15 K	23.86
318.15 K	23.02
328.15 K	22.33

C[S+](C)[O-] [dimethyl sulfoxide] + CCCO
surface tension liquid-gas [mN/m], [1]
Conditions	288.15 K	298.15 K	308.15 K	318.15 K	328.15 K
x2 = 0.0454	40.3	39.39	37.85	36.89	36.64
x2 = 0.1248	36.24	35.91	34.14	33.79	33.37
x2 = 0.2498	33.09	32.37	31.06	30.95	30.07
x2 = 0.3821	30.1	29.48	28.96	28.33	27.01
x2 = 0.4997	28.34	27.81	27.06	26.41	25.5
x2 = 0.5959	27.14	26.34	25.67	25.02	24.15
x2 = 0.661	26.33	25.7	24.6	24.15	23.35
x2 = 0.7081	25.71	25.17	24.41	23.65	22.77
x2 = 0.7437	25.25	24.74	23.97	23.15	22.45
x2 = 0.8523	24.28	23.5	22.89	22.34	21.64
x2 = 0.9519	23.55	22.58	22.13	21.5	20.28

CCCCCCO [hexan-1-ol] + C[S+](C)[O-]
surface tension liquid-gas [mN/m], [1]
Conditions	288.15 K	298.15 K	308.15 K	318.15 K	328.15 K
x1 = 0.0276	38.76	37.64	37.53	36.73	35.16
x1 = 0.0786	34.22	33.57	34.04	33.39	32.7
x1 = 0.1661	31.83	30.74	30.98	30.06	28.96
x1 = 0.2701	29.83	29.35	28.94	28.16	27.55
x1 = 0.3741	28.72	27.95	27.68	26.94	26.24
x1 = 0.4687	27.91	27.29	26.7	26.16	25.36
x1 = 0.5385	27.47	26.83	26.27	25.57	25.04
x1 = 0.5921	26.99	26.24	25.85	25.07	24.29
x1 = 0.6345	26.53	26.06	25.62	24.72	24.02
x1 = 0.7511	26	25.85	25.2	24.44	23.84
x1 = 0.9512	25.48	25.1	24.75	24.14	23.12

C[S+](C)[O-] [dimethyl sulfoxide]
[2]
Conditions	surface tension liquid-gas [mN/m]
288.15 K	43.68
298.15 K	42.18
308.15 K	41.11
318.15 K	39.99
328.15 K	38.72

CCCO [propan-1-ol]
[2]
Conditions	surface tension liquid-gas [mN/m]
288.15 K	23.24
298.15 K	22.5
308.15 K	21.39
318.15 K	20.88
328.15 K	20.18
